Reference: PMC5909473, “Isoform-selective activity-based profiling of ERK signaling” (Chemical Science, 2018)

Experiments:
ERK1 [1] = molecular target: T1, ERK1 (Homo sapiens, UniProt P27361); test: competitive ATP acyl phosphate activity-based profiling, SILAC LC-MS/MS in A549 lysate; assay type: biochemical; design: gene MAPK3; native endogenous ERK1 in A549 soluble proteome
ERK1 [2] = molecular target: T1, ERK1; test: competition of ATP acyl phosphate probe labelling by […] free ATP, SILAC LC-MS/MS; assay type: cell-based; design: gene MAPK3; native endogenous ERK1 in lung cancer cell proteomes
ERK2 = molecular target: T2, ERK2 (Homo sapiens, UniProt P28482); test: as above; assay type: cell-based
T2 construct: gene MAPK1; native endogenous ERK2 in lung cancer cell proteomes
T2 sequence (P28482 2-360): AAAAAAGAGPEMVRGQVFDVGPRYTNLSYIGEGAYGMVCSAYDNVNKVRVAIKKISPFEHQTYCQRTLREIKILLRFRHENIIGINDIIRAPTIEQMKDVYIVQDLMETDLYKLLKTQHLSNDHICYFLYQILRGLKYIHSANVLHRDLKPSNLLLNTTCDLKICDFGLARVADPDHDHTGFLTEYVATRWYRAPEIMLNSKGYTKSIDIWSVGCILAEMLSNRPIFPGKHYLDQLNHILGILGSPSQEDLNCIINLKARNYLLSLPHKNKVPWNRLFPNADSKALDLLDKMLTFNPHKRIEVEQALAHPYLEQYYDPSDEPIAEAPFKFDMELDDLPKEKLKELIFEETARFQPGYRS

T1 sequence (P27361 2-379): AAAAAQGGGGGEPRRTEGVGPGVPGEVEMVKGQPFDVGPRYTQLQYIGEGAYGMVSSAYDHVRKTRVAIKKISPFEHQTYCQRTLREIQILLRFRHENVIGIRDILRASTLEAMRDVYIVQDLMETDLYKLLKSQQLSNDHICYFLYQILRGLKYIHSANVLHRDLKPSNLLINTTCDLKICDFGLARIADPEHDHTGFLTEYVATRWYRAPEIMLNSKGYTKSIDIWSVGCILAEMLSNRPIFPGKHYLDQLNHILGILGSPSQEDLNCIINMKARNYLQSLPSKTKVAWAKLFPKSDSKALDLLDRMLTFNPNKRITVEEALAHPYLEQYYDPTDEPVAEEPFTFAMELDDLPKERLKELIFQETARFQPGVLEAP

SMILES | IC50 (ERK1 [1]) | competition of ATP acyl phosphate probe labelling by 1 mM free ATP, SILAC LC-MS/ (ERK1 [2]) | competition of ATP acyl phosphate probe labelling by 1 mM free ATP, SILAC LC-MS/ (ERK2)
CC(C)Nc1cc(-c2c[nH]c(C(=O)N[C@H](CO)c3cccc(Cl)c3)c2)c(Cl)cn1 [BVD-523] | 15 nM | – | –
Nc1ncnc2c1ncn2[C@@H]1O[C@H](COP(=O)(O)OP(=O)(O)OP(=O)(O)O)[C@@H](O)[C@H]1O [ATP] | – | both ERK1 and ERK2 probe-modified peptides were highly competed with ATP treatment | both ERK1 and ERK2 probe-modified peptides were highly competed with ATP treatment
